From US7205305B2, “Inhibitors of p38” (Vertex Pharmaceuticals Incorporated, priority 1996, dated 2007)

Legend:
activated p38 = activated p38 (Homo sapiens, UniProt Q16539); test: Inhibition of phosphorylation of EGF receptor peptide ("kinase"); type: biochemical; details: inhibition of phosphorylation of EGF receptor peptide by activated p38
Description: This assay was carried out in the presence of 10 mM MgCl2, 25 mM β-glycerophosphate, 10% glycerol and 100 mM HEPES buffer at pH 7.6. […] The stock solution was aliquotted into vials. A fixed volume of DMSO or inhibitor in DMSO (final concentration of DMSO in reaction was 5%) was introduced to each vial, mixed and incubated for 15 minutes at room temperature. EGF receptor peptide, […], a phosphoryl acceptor in p38-catalyzed kinase reaction (1), was added to each vial to a final concentration of 200 μM. The kinase reaction was initiated with ATP (100 μM) and the vials were incubated at 30° C. After 30 minutes, the reactions were quenched with equal volume of 10% trifluoroacetic acid (TFA).
The phosphorylated peptide was quantified by HPLC analysis. Separation of phosphorylated peptide from the unphosphorylated peptide was achieved on a reverse phase column (Deltapak, 5 μm, C18 100D, part no. 011795) with a binary gradient of water and acteonitrile, each containing 0.1% TFA.

[1] = tested on: TNF production in LPS-stimulated PBMCs; test: Inhibition of TNF production in LPS-stimulated PBMCs ("cell"); type: cell-based, human; details: Homo sapiens, PBMC
Description: (§1) Inhibitors were serially diluted in DMSO from a 20 mM stock. At least 6 serial dilutions were prepared. Then 4× inhibitor stocks were prepared by adding 4 μl of an inhibitor dilution to 1 ml of RPMI1640 medium/10% fetal bovine serum. The 4× inhibitor stocks contained inhibitor at concentrations of 80 μM, 32 μM, 12.8 μM, 5.12 μM, 2.048 μM, 0.819 μM, 0.328 μM, 0.131 μM, 0.052 μM, 0.021 μM etc. The 4× inhibitor stocks were pre-warmed at 37° C. until use.
(§2) Fresh human blood buffy cells were separated from other cells in a Vacutainer CPT from Becton & Dickinson (containing 4 ml blood and enough DPBS without Mg^2+/Ca^2+ to fill the tube) by centrifugation at 1500×g for 15 min. Peripheral blood mononuclear cells (PBMCs), located on top of the gradient in the Vacutainer, were removed and washed twice with RPMI1640 medium/10% fetal bovine serum. PBMCs were collected by centrifugation at 500×g for 10 min. The total cell number was determined using a Neubauer Cell Chamber and the cells were adjusted to a concentration of 4.8×10^6 cells/ml in cell culture medium (RPMI1640 supplemented with 10% fetal bovine serum).
(§3) We placed 100 μl of cell suspension or whole blood in each well of a 96-well cell culture plate. Then we added 50 μl of the 4× inhibitor stock to the cells. Finally, we added 50 μl of a lipopolysaccharide (LPS) working stock solution (16 ng/ml in cell culture medium) to give a final concentration of 4 ng/ml LPS in the assay. The total assay volume of the vehicle control was also adjusted to 200 μl by adding 50 μl cell culture medium. The PBMC cells or whole blood were then incubated overnight (for 12–15 hours) at 37° C./5% CO2 in a humidified atmosphere.
(§4) The next day the cells were mixed on a shaker for 3–5 minutes before centrifugation at 500×g for 5 minutes. Cell culture supernatants were harvested and analyzed by ELISA for levels of IL-1b (R & D Systems, Quantikine kits, #DBL50), TNF-α (BioSource, #KHC3012), IL-6 (Endogen, #EH2-IL6) and IL-8 (Endogen, #EH2-IL8) according to the instructions of the manufacturer. The ELISA data were used to generate dose-response curves from which IC50 values were derived.

[2] = tested on: IL-1 production in LPS-stimulated PBMCs; test: Inhibition of IL-1 production in LPS-stimulated PBMCs ("cell"); type: cell-based, human; details: Homo sapiens, PBMC
Description: as §1, §2, §3, §4

Chain of activated p38 (Q16539 whole entry): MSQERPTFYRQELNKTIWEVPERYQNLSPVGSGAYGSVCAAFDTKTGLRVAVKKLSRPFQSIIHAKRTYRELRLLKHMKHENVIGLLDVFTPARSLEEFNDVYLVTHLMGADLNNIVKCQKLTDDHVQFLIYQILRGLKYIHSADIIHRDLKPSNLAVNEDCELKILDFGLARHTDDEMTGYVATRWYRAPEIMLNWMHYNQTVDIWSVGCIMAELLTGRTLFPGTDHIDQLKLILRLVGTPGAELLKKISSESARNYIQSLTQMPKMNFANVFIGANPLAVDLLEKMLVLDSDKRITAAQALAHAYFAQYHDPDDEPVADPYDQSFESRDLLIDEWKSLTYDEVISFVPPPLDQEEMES

Row | Structure (SMILES) | IC50 (activated p38) [nM] | IC50 [1] [nM] | IC50 [2] [nM]
1 | Cc1cc(SC2=NN3CNC(=O)C(c4c(Cl)cccc4Cl)=C3C=C2)c(Cl)cc1F [Compound 133] | ≤ 100 | ≤ 100 | ≤ 100
2 | Cc1cc(F)ccc1-c1cccc(C(C(N)=O)c2c(F)cccc2Cl)n1 (stereo not drawn) [Compound 361] | 100 to 1000 | ≥ 500 | 100 to 500
3 | NC(=O)C(c1cccc(-c2cccc(Cl)c2)n1)c1c(F)cccc1Cl (stereo not drawn) [Compound 341] | 100 to 1000 | 100 to 500 | 100 to 500
4 | O=c1ncn2nc(Sc3ccccc3Br)ccc2c1-c1c(Cl)cccc1Cl [Compound 29] | 100 to 1000 | 100 to 500 | 100 to 500
5 | Cc1cc(F)ccc1SC1=NN2CNC(=O)C(c3c(Cl)cccc3Cl)=C2C=C1 [Compound 131] | ≤ 100 | ≤ 100 | ≤ 100
6 | O=c1ncn2nc(Sc3cccc(Cl)c3)ccc2c1-c1c(Cl)cccc1Cl [Compound 25] | 100 to 1000 | ≥ 500 | 100 to 500
7 | NC(=O)C(c1cccc(-c2ccccc2CNc2ccccc2)n1)c1c(Cl)cccc1Cl (stereo not drawn) [Compound 358] | 100 to 1000 | ≥ 500 | ≥ 500
8 | NC(=O)C(c1cccc(-c2cccc(F)c2)n1)c1c(Cl)cccc1Cl (stereo not drawn) [Compound 323] | 100 to 1000 | 100 to 500 | 100 to 500
9 | COc1ccc(-c2cccc(C(C(N)=O)c3c(Cl)cccc3Cl)n2)cc1 (stereo not drawn) [Compound 352] | ≥ 1000 |  | ≥ 500
10 | O=C1NCN2C=C(Sc3ccccc3)C=CC2=C1c1c(Cl)cccc1Cl [Compound 110] | 100 to 1000 | ≥ 500 | ≥ 500
11 | O=c1ncn2nc(Sc3ccc(F)cc3)ccc2c1-c1cc2c(cc1Cl)OCO2 [Compound 39] | 100 to 1000 | ≥ 500 | ≥ 500
12 | Cc1cc(Sc2ccc3c(-c4c(Cl)cccc4Cl)c(=O)ncn3n2)c(Cl)cc1F [Compound 41] | ≤ 100 | ≤ 100 | ≤ 100
13 | CCc1ccccc1Sc1ccc2c(-c3c(Cl)cccc3Cl)c(=O)ncn2n1 [Compound 20] | 100 to 1000 | ≥ 500 | ≥ 500
14 | O=c1ncn2nc(Sc3ccc(Cl)c(Cl)c3)ccc2c1-c1c(Cl)cccc1Cl [Compound 16] | 100 to 1000 | 100 to 500 | ≥ 500
15 | NC(=O)C(c1ccc(C(O)c2ccccc2)cn1)c1c(Cl)cccc1Cl (stereo not drawn) [Compound 208] |  |  | 100 to 500
16 | Cc1cccc(C)c1N(C(N)=O)c1cccc(-c2ccc(F)cc2)n1 [Compound 407] | 100 to 1000 | ≥ 500 | 100 to 500
17 | Cc1ccc(Sc2ccc3c(-c4c(Cl)cccc4Cl)c(=O)ncn3n2)cc1C [Compound 19] | ≥ 1000 | ≥ 500 | ≥ 500
18 | Cc1cc(Cl)ccc1Sc1ccc(C(C(N)=O)c2c(Cl)cccc2Cl)nn1 (stereo not drawn) [Compound 206] | 100 to 1000 | ≥ 500 | ≥ 500
19 | NC(=O)C(c1cccc(-c2ccc(F)c(Cl)c2)n1)c1c(Cl)cccc1Cl (stereo not drawn) [Compound 313] | 100 to 1000 | ≥ 500 | ≥ 500
20 | COc1cc(Cl)c(-c2c(=O)ncn3nc(Sc4ccc(F)cc4)ccc23)cc1OC [Compound 43] | 100 to 1000 | ≥ 500 | ≥ 500
21 | NC(=O)C(c1ccc(C(=O)c2ccccc2)cn1)c1c(Cl)cccc1Cl (stereo not drawn) [Compound 209] |  |  | ≥ 500
22 | NC(=O)C(c1cccc(-c2ccc(C(=O)O)cc2)n1)c1c(Cl)cccc1Cl (stereo not drawn) [Compound 315] | ≥ 1000 |  | 
23 | NC(=O)C(c1cccc(-c2ccc(C(=O)O)cc2)n1)c1c(F)cccc1Cl (stereo not drawn) [Compound 336] | ≥ 1000 |  | 
24 | NC(=O)C(c1cccc(-c2cccc(F)c2)n1)c1c(F)cccc1Cl (stereo not drawn) [Compound 344] | ≥ 1000 |  | 
25 | NC(=O)C(c1cccc(-c2ccccc2CCO)n1)c1c(Cl)cccc1Cl (stereo not drawn) [Compound 378] | ≤ 100 |  | 
26 | NC(=O)C(c1cccc(-c2ccccc2C=O)n1)c1c(Cl)cccc1Cl (stereo not drawn) [Compound 327] | 100 to 1000 |  | 
